The assay concerns the target T1, human GHRH receptor (Homo sapiens, UniProt Q02643).
T1 construct: expressed in transfected cells; host or cells: BHK (baby hamster kidney) 570 cells
T1 sequence (Q02643 23-423): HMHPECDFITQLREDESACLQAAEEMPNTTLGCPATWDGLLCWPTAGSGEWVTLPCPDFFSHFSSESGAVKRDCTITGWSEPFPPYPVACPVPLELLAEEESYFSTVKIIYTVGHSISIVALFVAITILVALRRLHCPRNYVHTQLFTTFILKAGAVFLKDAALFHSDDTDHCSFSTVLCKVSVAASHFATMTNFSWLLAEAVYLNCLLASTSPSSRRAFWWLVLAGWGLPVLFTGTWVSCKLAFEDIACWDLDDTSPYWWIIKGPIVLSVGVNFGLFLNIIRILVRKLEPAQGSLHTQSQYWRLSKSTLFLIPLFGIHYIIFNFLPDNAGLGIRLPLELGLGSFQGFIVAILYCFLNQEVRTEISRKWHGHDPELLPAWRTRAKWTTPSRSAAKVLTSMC
The assay can be described thus: Competitive 125I-GHRH binding assay in BHK cell membrane preparations expressing the human GHRH receptor. How it is done:
Non specific binding was determined in presence of 1 μM hGHRH(1-29)NH2. Incubation was carried out at equilibrium (23° C., 60 min) and stopped by centrifugation (12,000 g, 5 min, at 4° C.). The radioactivity content in pellets was determined by gamma counting. The affinity of hGHRH(1-29) NH2 was tested in each experiment to assess the validity of the assay and determine the relative affinity of the analogues.
Values represent the mean±SEM of 3 experiments performed in triplicate for the analogues and the mean±SEM of 2 experiments performed in triplicate for hGHRH(1-44) NH2.
For the binding assay results presented in Tables 8 to 11, values represent the mean±SEM of 8 independent experiments performed in triplicate for the analogues and the mean±SEM of 4 experiments performed in triplicate for hGHRH(1-29)NH2. […] The relative affinity was obtained by taking the ratio IC50 of hGHRH (1-29)-NH2/IC50 analogue.

Square brackets hold non-standard residues; d marks the D form. Peptide text beside a SMILES is read from it.

As for `CC[C@H](C)[C@H](NC(=O)[C@H](C)NC(=O)[C@H](CC(=O)O)NC(=O)[C@@H](C)NC(=O)[C@@H](N)Cc1ccc(O)cc1)C(=O)N[C@@H](Cc1ccccc1)C(=O)N[C@H](C(=O)N[C@@H](CC(N)=O)C(=O)N[C@@H](CO)C(=O)N[C@H](Cc1ccc(O)cc1)C(=O)N[C@@H](CCCNC(=N)N)C(=O)N[C@@H](CCCCN)C(=O)N[C@H](C(=O)N[C@@H](CC(C)C)C(=O)N[C@H](C)C(=O)N[C@@H](CCC(N)=O)C(=O)N[C@@H](CC(C)C)C(=O)N[C@@H](CO)C(=O)N[C@@H](C)C(=O)N[C@@H](CCCNC(=N)N)C(=O)N[C@@H](CCCCN)C(=O)N[C@@H](CCCCN)C(=O)N[C@@H](CC(C)C)C(=O)N[C@@H](CCC(N)=O)C(=O)N[C@@H](CC(=O)O)C(=O)N[C@H](C(=O)N[C@@H](CCSC)C(=O)N[C@@H](CO)C(=O)N[C@@H](CCCNC(=N)N)C(N)=O)[C@@H](C)CC)C(C)C)[C@@H](C)O` [GHRH analogue #5, [D-Ala^2, D-Tyr^10, D-Ala^15, Lys^22] hGHRH(1-29)-NH2] (H-Y[dA]DAIFTNS[dY]RKVL[dA]QLSARKKLQDIMSR-NH2), the IC50 result (Table 7, mean±SEM of 3 experiments (analogue) or 2 experiments (hGHRH(1-44)NH2) in triplicate) was “no significant difference was observed”. For the same molecule, for the setting “ratio IC50 of hGHRH(1-29)-NH2/IC50 analogue, mean±SEM”, the “Relative binding affinity (R1) in comparison with hGHRH(1-29)NH2 in BHK cells expressing the hGHRH receptor” value came to 939 ± 249.

These data come from US20090023646A1, “GHRH analogues” (Centre Hospitalier de L'Universite de Montreal (CHUM), priority 2002, published 2009).
